Reference: paper PMC5762309 (Oncotarget, 2017)
pEC50, pIC50: −log10 of the molar value. Where two headings read alike, the source gives them in different places.

Key:
BaF3-tel-KIT-A829P = assay: Anti-proliferation assay, transformed BaF3 cells; assay type: cell-based; settings: Mus musculus, 72 hours, CellTiter-Glo
Source text: (§1) Retroviral constructs for BaF3-KIT mutants were made based on the pMSCVpuro (Clontech) backbone. For TEL-KIT vector, the first 1 kb of human TEL gene with an artificial myristoylation sequence ([…]) was cloned into the pMSCVpuro retroviral vector, followed by a 3xFLAG tag sequence. Then, the kinase domain coding sequence of KIT was inserted in-frame between TEL and 3xFLAG sequences. For full-length expression vectors, the coding sequences of KIT variants were directly cloned in pMSCVpuro vector with a 3xFLAG tag at the C-terminal end. All mutagenesis was performed using the QuikChange Site-Directed Mutagenesis Kit (Stratagene) following the manufacturer’s instructions. Retrovirus was packaged in HEK293T cells by transfecting KIT-containing MSCV vectors together with two helper plasmids. Virus supernatants were harvested 48 h after transfection and filtered before infection. Then BaF3 cells were infected with harvested virus supernatants using spinoculation protocol, and stable cell lines were obtained by puromycin selection for 48 h. The IL-3 concentrations in the culture medium were gradually withdrawn until cells were able to grow in the absence of IL-3.
(§2) Cells were grown in 96-well culture plates (2500/well). The compounds of various concentrations were added into the plates. Cell proliferation was determined after treatment with compounds for 72 hours. Cell viability was measured using the CellTiter–Glo assay (Promega, USA), according to the manufacturer’s instructions, and luminescence was measured in a multi-label reader (Envision, PerkinElmer, USA). Data were normalized to control groups (DMSO) and represented by the mean of three independent measurements with standard error <20%. GI50 values were calculated using Prism 5.0 (GraphPad Software, San Diego, CA).

BaF3-tel-KIT-D816V = assay: Anti-proliferation assay, transformed BaF3 cells; assay type: cell-based; settings: Mus musculus, 72 hours, CellTiter-Glo
Source text: as §1, §2

BaF3-tel-KIT-L576P = assay: Anti-proliferation assay, transformed BaF3 cells; assay type: cell-based; settings: Mus musculus, 72 hours, CellTiter-Glo
Source text: as §1, §2

BaF3-tel-KIT-N822K = assay: Anti-proliferation assay, transformed BaF3 cells; assay type: cell-based; settings: Mus musculus, 72 hours, CellTiter-Glo
Source text: as §1, §2

BaF3-tel-KIT-T670I-V559D = assay: Anti-proliferation assay, transformed BaF3 cells; assay type: cell-based; settings: Mus musculus, 72 hours, CellTiter-Glo
Source text: as §1, §2

BaF3-tel-KIT-T670I = assay: Anti-proliferation assay, transformed BaF3 cells; assay type: cell-based; settings: Mus musculus, 72 hours, CellTiter-Glo
Source text: as §1, §2

BaF3-tel-KIT-V559D-V654A = assay: Anti-proliferation assay, transformed BaF3 cells; assay type: cell-based; settings: Mus musculus, 72 hours, CellTiter-Glo
Source text: as §1, §2

BaF3-tel-KIT-V559D = assay: Anti-proliferation assay, transformed BaF3 cells; assay type: cell-based; settings: Mus musculus, 72 hours, CellTiter-Glo
Source text: as §1, §2

BaF3-tel-KIT-V654A = assay: Anti-proliferation assay, transformed BaF3 cells; assay type: cell-based; settings: Mus musculus, 72 hours, CellTiter-Glo
Source text: as §1, §2

BaF3-tel-KIT = assay: Anti-proliferation assay, transformed BaF3 cells; assay type: cell-based; settings: Mus musculus, 72 hours, CellTiter-Glo
Source text: as §1, §2

CSNK1G3 = molecular target: T1, CSNK1G3 (Homo sapiens, UniProt Q9Y6M4); assay: KINOMEScan; assay type: binding; design: dose or concentration left out as unconfirmed
T1 construct: purchased DiscoverX KINOMEscan

DLK = molecular target: T2, DLK (Homo sapiens, UniProt Q12852); assay: KINOMEScan; assay type: binding; design: dose or concentration left out as unconfirmed
T2 construct: purchased DiscoverX KINOMEscan

EGFR(G719C) = molecular target: T3, EGFR(G719C) (Homo sapiens, UniProt P00533, G719C); assay: KINOMEScan; assay type: binding; design: dose or concentration left out as unconfirmed
T3 construct: purchased DiscoverX KINOMEscan

EGFR(S752-I759del) = molecular target: T4, EGFR(S752-I759del) (Homo sapiens, UniProt P00533, DEL752-759); assay: KINOMEScan; assay type: binding; design: dose or concentration left out as unconfirmed
T4 construct: purchased DiscoverX KINOMEscan

FLT3(ITD) = assay: KINOMEScan; assay type: binding; design: dose or concentration left out as unconfirmed
JNK3 = molecular target: T5, JNK3 (Homo sapiens, UniProt P53779); assay: KINOMEScan; assay type: binding; design: dose or concentration left out as unconfirmed
T5 construct: purchased DiscoverX KINOMEscan

MARK4 = molecular target: T6, MARK4 (Homo sapiens, UniProt Q96L34); assay: KINOMEScan; assay type: binding; design: dose or concentration left out as unconfirmed
T6 construct: purchased DiscoverX KINOMEscan

MET = molecular target: T7, MET (Homo sapiens, UniProt P08581); assay: KINOMEScan; assay type: binding; design: dose or concentration left out as unconfirmed
T7 construct: purchased DiscoverX KINOMEscan

MST1 = molecular target: T8, MST1 (Homo sapiens, UniProt Q13043); assay: KINOMEScan; assay type: binding; design: dose or concentration left out as unconfirmed
T8 construct: purchased DiscoverX KINOMEscan

PIKFYVE = molecular target: T9, PIKFYVE (Homo sapiens, UniProt Q9Y2I7); assay: KINOMEScan; assay type: binding; design: dose or concentration left out as unconfirmed
T9 construct: purchased DiscoverX KINOMEscan

PIP5K1C = molecular target: T10, PIP5K1C (Homo sapiens, UniProt O60331); assay: KINOMEScan; assay type: binding; design: dose or concentration left out as unconfirmed
T10 construct: purchased DiscoverX KINOMEscan

PLK2 = molecular target: T11, PLK2 (Homo sapiens, UniProt Q9NYY3); assay: KINOMEScan; assay type: binding; design: dose or concentration left out as unconfirmed
T11 construct: purchased DiscoverX KINOMEscan

ULK3 = molecular target: T12, ULK3 (Homo sapiens, UniProt Q6PHR2); assay: KINOMEScan; assay type: binding; design: dose or concentration left out as unconfirmed
T12 construct: purchased DiscoverX KINOMEscan

KIT T670I = KIT T670I (Homo sapiens, UniProt P10721, T670I); assay: KIT auto-phosphorylation in transformed BaF3 cells; settings: 2h
KIT N822K = KIT N822K (Homo sapiens, UniProt P10721, N822K); assay: KIT auto-phosphorylation in transformed BaF3 cells
KIT D816V = KIT D816V (Homo sapiens, UniProt P10721, D816V); assay: KIT auto-phosphorylation in transformed BaF3 cells; settings: 2h
KIT V559D = KIT V559D (Homo sapiens, UniProt P10721, V559D); assay: ADP-Glo biochemical assay; design: Kit V559D encoding residues 545-976 with His tag; His tag; made in house; host or cells: SF9 insect cells (baculovirus)
[1] = EC50 pY703 auto-phosphorylation
[2] = EC50 pY719 auto-phosphorylation
[3] = EC50 pY823 auto-phosphorylation

Chain of KIT V559D (P10721 545-976 V559D): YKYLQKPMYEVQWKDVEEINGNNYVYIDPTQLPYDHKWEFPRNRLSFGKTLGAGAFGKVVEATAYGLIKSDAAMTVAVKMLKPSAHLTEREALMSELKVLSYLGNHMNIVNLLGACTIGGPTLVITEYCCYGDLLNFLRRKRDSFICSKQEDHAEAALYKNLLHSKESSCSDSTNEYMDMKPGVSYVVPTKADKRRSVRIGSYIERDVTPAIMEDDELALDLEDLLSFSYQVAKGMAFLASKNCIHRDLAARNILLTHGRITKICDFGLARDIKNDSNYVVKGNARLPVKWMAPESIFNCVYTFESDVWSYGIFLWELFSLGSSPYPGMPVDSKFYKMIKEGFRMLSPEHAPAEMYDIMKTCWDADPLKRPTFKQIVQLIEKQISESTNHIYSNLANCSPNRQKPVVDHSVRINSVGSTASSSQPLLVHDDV
Chain of KIT N822K (P10721 26-976 N822K): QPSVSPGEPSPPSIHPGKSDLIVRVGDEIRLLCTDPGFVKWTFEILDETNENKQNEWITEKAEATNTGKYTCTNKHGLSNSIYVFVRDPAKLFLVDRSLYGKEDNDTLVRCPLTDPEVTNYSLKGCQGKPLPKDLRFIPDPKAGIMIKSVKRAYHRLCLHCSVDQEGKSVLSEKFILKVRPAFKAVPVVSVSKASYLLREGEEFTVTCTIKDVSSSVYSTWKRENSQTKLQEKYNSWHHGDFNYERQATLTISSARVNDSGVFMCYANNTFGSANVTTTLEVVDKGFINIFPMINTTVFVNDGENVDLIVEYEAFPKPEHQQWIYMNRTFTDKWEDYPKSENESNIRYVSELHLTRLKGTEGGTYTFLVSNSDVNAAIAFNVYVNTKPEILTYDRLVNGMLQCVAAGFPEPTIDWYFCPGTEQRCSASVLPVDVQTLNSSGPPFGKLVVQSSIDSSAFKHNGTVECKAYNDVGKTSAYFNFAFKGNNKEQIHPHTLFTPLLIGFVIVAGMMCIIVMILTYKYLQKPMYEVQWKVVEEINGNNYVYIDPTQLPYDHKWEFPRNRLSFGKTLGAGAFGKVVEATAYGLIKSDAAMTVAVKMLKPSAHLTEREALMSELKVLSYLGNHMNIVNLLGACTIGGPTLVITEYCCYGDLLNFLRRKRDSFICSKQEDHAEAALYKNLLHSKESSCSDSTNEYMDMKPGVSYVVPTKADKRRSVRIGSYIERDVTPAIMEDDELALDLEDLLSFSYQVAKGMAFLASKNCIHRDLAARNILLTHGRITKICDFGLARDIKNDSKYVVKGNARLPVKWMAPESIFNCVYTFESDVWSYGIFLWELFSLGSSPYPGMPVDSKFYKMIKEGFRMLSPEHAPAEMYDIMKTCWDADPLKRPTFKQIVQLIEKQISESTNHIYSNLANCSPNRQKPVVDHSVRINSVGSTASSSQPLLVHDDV
Chain of KIT D816V (P10721 26-976 D816V): as the sequence (P10721 26-976 N822K) above, with D791V, K797N counted along it
Chain of KIT T670I (P10721 26-976 T670I): as the sequence (P10721 26-976 N822K) above, with T645I, K797N counted along it
T9 sequence (Q9Y2I7 whole entry): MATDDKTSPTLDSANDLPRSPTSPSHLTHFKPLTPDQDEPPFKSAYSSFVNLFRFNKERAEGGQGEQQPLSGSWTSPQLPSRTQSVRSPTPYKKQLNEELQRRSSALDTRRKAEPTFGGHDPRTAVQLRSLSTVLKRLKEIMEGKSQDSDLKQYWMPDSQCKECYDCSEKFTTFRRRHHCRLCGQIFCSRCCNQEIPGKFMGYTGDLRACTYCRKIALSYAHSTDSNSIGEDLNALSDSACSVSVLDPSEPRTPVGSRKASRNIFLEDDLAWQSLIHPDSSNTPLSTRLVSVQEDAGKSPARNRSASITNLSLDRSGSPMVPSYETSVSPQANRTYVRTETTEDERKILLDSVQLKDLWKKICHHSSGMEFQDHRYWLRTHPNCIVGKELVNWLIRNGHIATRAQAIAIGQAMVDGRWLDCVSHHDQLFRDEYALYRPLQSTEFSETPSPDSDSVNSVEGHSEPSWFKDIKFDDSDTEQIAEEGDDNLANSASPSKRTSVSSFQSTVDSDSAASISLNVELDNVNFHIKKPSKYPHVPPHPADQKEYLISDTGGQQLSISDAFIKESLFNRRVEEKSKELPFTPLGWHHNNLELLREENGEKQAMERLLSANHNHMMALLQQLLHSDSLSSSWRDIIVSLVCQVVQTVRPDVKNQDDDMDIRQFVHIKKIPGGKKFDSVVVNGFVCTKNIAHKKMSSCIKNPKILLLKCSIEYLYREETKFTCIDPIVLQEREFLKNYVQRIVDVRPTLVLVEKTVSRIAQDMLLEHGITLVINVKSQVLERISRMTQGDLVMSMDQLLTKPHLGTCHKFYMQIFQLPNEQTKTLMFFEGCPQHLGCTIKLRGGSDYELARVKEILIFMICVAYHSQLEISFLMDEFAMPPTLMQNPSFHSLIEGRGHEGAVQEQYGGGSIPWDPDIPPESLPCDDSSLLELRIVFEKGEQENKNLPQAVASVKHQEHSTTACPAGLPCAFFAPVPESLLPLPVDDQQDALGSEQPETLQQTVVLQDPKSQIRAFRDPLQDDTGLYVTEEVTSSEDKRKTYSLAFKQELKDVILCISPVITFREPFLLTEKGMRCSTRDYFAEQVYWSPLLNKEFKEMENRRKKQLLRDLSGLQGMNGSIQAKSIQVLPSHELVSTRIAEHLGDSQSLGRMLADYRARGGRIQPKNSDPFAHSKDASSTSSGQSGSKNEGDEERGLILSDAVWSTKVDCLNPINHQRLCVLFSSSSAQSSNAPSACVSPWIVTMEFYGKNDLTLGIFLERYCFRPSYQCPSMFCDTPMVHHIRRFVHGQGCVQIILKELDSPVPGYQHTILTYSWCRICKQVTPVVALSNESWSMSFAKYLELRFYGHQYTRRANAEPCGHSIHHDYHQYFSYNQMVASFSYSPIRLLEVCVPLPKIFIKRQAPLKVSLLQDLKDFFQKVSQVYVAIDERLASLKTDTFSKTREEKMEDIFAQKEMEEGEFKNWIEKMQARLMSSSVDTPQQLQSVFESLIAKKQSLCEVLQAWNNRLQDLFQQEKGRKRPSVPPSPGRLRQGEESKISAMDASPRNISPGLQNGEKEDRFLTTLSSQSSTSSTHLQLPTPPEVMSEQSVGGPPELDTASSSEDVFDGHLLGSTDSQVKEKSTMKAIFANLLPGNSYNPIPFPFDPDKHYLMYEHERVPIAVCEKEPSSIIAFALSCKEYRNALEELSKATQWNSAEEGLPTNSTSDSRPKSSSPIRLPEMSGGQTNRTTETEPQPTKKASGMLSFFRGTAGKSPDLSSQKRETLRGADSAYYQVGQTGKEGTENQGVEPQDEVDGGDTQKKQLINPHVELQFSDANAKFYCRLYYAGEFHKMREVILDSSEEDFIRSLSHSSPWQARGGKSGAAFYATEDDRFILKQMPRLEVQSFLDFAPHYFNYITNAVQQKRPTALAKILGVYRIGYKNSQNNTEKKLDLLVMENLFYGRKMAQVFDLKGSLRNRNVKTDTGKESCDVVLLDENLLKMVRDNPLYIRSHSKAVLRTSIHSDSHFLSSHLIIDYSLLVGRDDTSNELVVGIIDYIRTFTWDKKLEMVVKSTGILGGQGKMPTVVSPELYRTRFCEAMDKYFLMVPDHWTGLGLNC
T5 sequence (P53779 whole entry): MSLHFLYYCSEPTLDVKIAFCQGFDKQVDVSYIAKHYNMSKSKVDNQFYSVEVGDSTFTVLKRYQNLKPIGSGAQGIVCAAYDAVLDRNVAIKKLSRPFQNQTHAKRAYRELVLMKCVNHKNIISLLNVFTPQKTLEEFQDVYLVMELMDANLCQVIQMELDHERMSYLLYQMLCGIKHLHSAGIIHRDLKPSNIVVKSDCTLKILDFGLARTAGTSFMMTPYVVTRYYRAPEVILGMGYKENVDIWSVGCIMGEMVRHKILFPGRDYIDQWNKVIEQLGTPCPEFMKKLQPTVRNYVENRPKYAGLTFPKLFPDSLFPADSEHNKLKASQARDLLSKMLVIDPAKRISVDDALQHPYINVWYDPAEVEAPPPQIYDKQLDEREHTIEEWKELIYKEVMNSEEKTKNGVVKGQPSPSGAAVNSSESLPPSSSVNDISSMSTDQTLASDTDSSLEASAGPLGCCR
T10 sequence (O60331 whole entry): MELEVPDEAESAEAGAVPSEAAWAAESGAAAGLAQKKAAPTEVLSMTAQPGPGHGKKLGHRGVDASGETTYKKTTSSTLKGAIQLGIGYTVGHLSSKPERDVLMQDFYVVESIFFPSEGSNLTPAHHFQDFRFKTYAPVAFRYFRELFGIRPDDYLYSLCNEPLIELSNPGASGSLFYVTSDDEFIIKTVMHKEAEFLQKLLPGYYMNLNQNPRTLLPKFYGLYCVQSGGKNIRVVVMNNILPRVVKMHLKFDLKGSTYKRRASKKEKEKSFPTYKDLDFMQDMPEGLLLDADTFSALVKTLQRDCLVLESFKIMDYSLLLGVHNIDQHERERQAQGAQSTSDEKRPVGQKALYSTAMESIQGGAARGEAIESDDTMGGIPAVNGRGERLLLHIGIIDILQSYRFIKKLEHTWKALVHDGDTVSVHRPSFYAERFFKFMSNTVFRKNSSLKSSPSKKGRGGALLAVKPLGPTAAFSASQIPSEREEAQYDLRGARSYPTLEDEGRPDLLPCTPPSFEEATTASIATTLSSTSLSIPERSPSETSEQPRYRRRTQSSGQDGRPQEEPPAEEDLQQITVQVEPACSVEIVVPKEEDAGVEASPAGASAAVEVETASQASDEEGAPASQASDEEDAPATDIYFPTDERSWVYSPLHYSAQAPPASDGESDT
T4 sequence (P00533 with tags, fused parts or gaps DEL752-759 limits assumed): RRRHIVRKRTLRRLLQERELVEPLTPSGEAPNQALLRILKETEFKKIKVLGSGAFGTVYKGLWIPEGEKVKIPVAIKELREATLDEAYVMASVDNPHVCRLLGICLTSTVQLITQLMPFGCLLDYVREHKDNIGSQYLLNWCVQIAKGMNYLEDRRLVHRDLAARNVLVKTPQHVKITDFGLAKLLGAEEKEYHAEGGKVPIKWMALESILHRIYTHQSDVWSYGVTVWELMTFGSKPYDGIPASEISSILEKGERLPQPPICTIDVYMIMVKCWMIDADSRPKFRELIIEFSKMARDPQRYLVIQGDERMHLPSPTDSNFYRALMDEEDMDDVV

COc1cc(C(=O)NCC(=O)Nc2ccc3c(/C=C/c4ccccn4)n[nH]c3c2)cc(OC)c1OC [CHMFL-KIT-031]
GI50 (BaF3-tel-KIT-A829P): 1.8 µM | GI50 (BaF3-tel-KIT-D816V): > 10 µM | GI50 (BaF3-tel-KIT-L576P): 2.2 µM | GI50 (BaF3-tel-KIT-N822K): > 10 µM | GI50 (BaF3-tel-KIT-T670I-V559D): > 10 µM | GI50 (BaF3-tel-KIT-T670I): > 10 µM | GI50 (BaF3-tel-KIT-V559D-V654A): 0.81 µM | GI50 (BaF3-tel-KIT-V559D): 0.025 µM | GI50 (BaF3-tel-KIT-V654A): 0.4 µM | GI50 (BaF3-tel-KIT): > 10 µM | KINOMEScan profiling value (CSNK1G3): 99 | KINOMEScan profiling value (DLK): 97 | KINOMEScan profiling value (EGFR(G719C)): 100 | KINOMEScan profiling value (EGFR(S752-I759del)): 92 | KINOMEScan profiling value (FLT3(ITD)): 44 | KINOMEScan profiling value (JNK3): 99 | KINOMEScan profiling value (MARK4): 96 | KINOMEScan profiling value (MET): 100 | KINOMEScan profiling value (MST1): 89 | KINOMEScan profiling value (PIKFYVE): 87 | KINOMEScan profiling value (PIP5K1C): 71 | KINOMEScan profiling value (PLK2): 100 | KINOMEScan profiling value (ULK3): 89 | pEC50 (KIT T670I; [1]): < 5.00 | pEC50 (KIT T670I; [2]): < 5.00 | pEC50 (KIT T670I; [3]): 5.96 | pEC50 (KIT N822K): < 5.00 | pEC50 (KIT N822K; read-out: EC50 pY719 auto-phosphorylation, KIT N822K transformed BaF3 cells, 2h): < 5.00 | pEC50 (KIT N822K; read-out: EC50 pY823 auto-phosphorylation, KIT N822K transformed BaF3 cells, 2h): < 5.00 | pEC50 (KIT D816V; [1]): < 5.00 | pEC50 (KIT D816V; [2]): < 5.00 | pEC50 (KIT D816V; [3]): 5.34 | selectivity over KIT wt (IC50) (KIT V559D; ADP-Glo, KIT V559D vs KIT wt): about 6 fold | pIC50 (KIT V559D; purified kinase protein, ADP-Glo, 100 μM ATP): 7.55 | selectivity over KIT wt (KIT V559D; summary statement): 10 fold
